# Values quoted from earlier work as cited in patent US7601427B2, “Curable composition, cured film, antireflection film, polarizing plate and liquid crystal display” (Fujifilm Corporation, priority 2005, dated 2009).
# Conditions: pKa of conjugate acid, aqueous solution, from Kagaku Binran
smiles,measurement,value
"CN(C)CCO [b-17, N,N′-Dimethyl-2-aminoethanol]",pKa,9.5
